pEC50: −log10 of the molar value.
Assays:
B16 cells = test: In vitro MITF induction in B16 cells; type: cell-based, mouse; settings: for maximal fold induction / pEC50: Mus musculus, Table 5; for maximal fold induction: B16 cells, read-out: Highest fold mitf induction in B16 cells; for Highest fold Mitf induction: Table 6, cells not given, same values as Table 5 (B16 cells); for pEC50: readout not given, presumably mitf induction in B16 cells
Method: qPCR. mRNA was extracted from cells using the RNeasy Mini Kit (Qiagen®). KAPA SYBR® FAST Universal One-Step qRT-PCR Kit (KAPA BIOSYSTEMS®) was used to prepare mRNA samples for qPCR and samples were analyzed using the 7500 Fast Real Time PCR System (Applied Biosystems®). The relative expression of each gene was calculated by 7500 Fast System Software program, which utilizes Ct normalized to mRNA levels of RPL11 to calculate relative expression. Results are reported relative to control cells.
Tables 2 to 5 below show the effects of exemplary […] compounds on skin darkening, including an in vitro test of MITF induction following the same protocol as described above in paragraph 333, wherein exemplary SIK inhibitor compounds were tested for their in vitro induction of MITF.
Table 5 below additionally provides characteristics of exemplary SIK inhibitor compounds, MITF induction in B16 cells, EC50, log P, and experimental conditions for skin darkening experiments in mice and humans.

[1] = system: human breast skin explants; test: Human skin explants: darkening/pigmentation after topical SIK inhibitor; type: cell-based; settings: Human Skin Explants
Method: Image and Colorimeter analysis were conducted 24 hours after the last treatment.
Human pigmentation experiments. Full thickness human breast skin explants were cultured in petri dishes with a solid phase and liquid phase phenol red free DMEM medium with […], 5% fungizone (Gibco®), and 10% FBS. Passive application refers to simply applying the treatment to skin without further rubbing or manipulation. Mechanical application refers to application of agents to skin with further rubbing of treatment with 10 clockwise turns of a gloved cotton swab applicator. Skin was harvested, fixed, and processed for paraffin embedding. Sections were cut from paraffin blocks, and sections were stained utilizing hematoxylin and eosin (morphology) and Fontana-Masson (melanin).

[2] = Table 2, passive topical application

SMILES	maximal fold induction (B16 cells)	pEC50 (B16 cells)	other results
COc1ccc(N2C(=O)N(c3c(C)cccc3C)Cc3cnc(Nc4ccc(CN5CCN(C)CC5)cc4)nc32)nc1 [YKL-04-136-10]	16.3		Highest fold Mitf induction (B16 cells): 16.28 fold
COc1ccc(N2C(=O)N(c3c(C)cccc3C)Cc3cnc(Nc4ccc(CN5CCN(C)CC5)cc4)nc32)c(OC)c1 [YKL-04-136-01]	9.7	7.28	
Cc1cccc(Cl)c1N1Cc2cnc3nc2N(C/C=C\CCOc2cccc(c2)N3)C1=O [YKL-05-201-1]			Results (skin darkening) [1, 2]: Darkens; Results (skin darkening) ([1]; Table 4): Darkens
COc1cc(N2CCN(C(C)=O)CC2)ccc1N1C(=O)N(c2c(C)cccc2C)Cc2cnc(Nc3cnn(CCN(C)C)c3)nc21 [YKL-04-136-07]	2.4	6.90	
Cc1cccc(C)c1N1Cc2cnc(Nc3ccc(N4CCN(C)CC4)cc3)nc2N(C)C1=O [YKL-06-29]			Results (skin darkening) [1, 2]: Darkens; Results (skin darkening) ([1]; Table 4): Darkens
COc1ccc(N2C(=O)N(c3c(C)cccc3C)Cc3cnc(Nc4cc(N5CCOCC5)cc(N5CCN(C)CC5)c4)nc32)c(OC)c1 [HG-11-143-01]	6.8	7.24	
Cc1cccc(C)c1N1Cc2cnc3nc2N(C/C=C\COc2cc(ccc2N2CCN(C)CC2)N3)C1=O [YKL-05-204-1]			Results (skin darkening) [1, 2]: Darkens; Results (skin darkening) ([1]; Table 4): Darkens
COc1ccc(N2C(=O)N(c3c(C)cccc3Cl)Cc3cnc(Nc4cnn(CCN(C)C)c4)nc32)c(OC)c1 [YKL-04-136-04]	9.2	7.82	
COc1ccc(N2C(=O)N(c3c(C)cccc3C)Cc3cnc(Nc4cnn(CCN(C)C)c4)nc32)nc1 [YKL-04-136-08]	4.1	7.85	
COc1ccc(N2C(=O)N(c3c(C)cccc3C)Cc3cnc(Nc4ccc(CCCN5CCOCC5)cc4)nc32)c(OC)c1 [YKL-04-108]	13.9	7.85	Results (skin darkening) ([1]; Table 3): Darkens
Cc1cccc(C)c1N1Cc2cnc(Nc3ccc(N4CCN(C)CC4)cc3)nc2N(C(C)C)C1=O [YKL-06-058]			Results (skin darkening) [1, 2]: Darkens; Results (skin darkening) ([1]; Table 4): Darkens
COc1ccc(N2C(=O)N(c3c(C)cccc3C)Cc3cnc(Nc4cccc(OCCN5CCOCC5)c4)nc32)c(OC)c1 [YKL-04-106]	9	7.13	
CN1CCN(c2ccc(Nc3ncc4c(n3)N(C)C(=O)N(c3ccccc3)C4)cc2)CC1 [HG-11-137-01]	4.82		Highest fold Mitf induction (B16 cells): 4.82 fold; Results (skin darkening) ([1]; Table 3): Darkens
CCN1CCN(Cc2ccc(Nc3ncc4c(n3)N(c3ccc(OC)cc3OC)C(=O)N(c3c(C)cccc3C)C4)cc2C(F)(F)F)CC1 [YKL-04-103]	10.2	9.00	
COc1cc(N2CCN(C)CC2)ccc1Nc1ncc2c(n1)N(C)C(=O)N(c1ccccc1)C2 [HG-11-139-02]	5.76		Highest fold Mitf induction (B16 cells): 5.76 fold
COc1ccc(N2C(=O)N(c3c(C)cccc3C)Cc3cnc(Nc4cc(N5CCN(C)CC5)cc(C(F)(F)F)c4)nc32)c(OC)c1 [YKL-04-112]	5.2	6.67	
COc1ccc(N2C(=O)N(c3c(C)cccc3C)Cc3cnc(Nc4cc(N5CCOCC5)cc(C(F)(F)F)c4)nc32)c(OC)c1 [YKL-04-113]	11.2	6.18	

SMILES	maximal fold induction (B16 cells)	pEC50 (B16 cells)	other results
COc1ccc(N2C(=O)N(c3c(C)cccc3Cl)Cc3cnc(Nc4ccc(N5CCN(C)CC5)cc4)nc32)c(OC)c1 [YKL-04-136-03]	6.2	7.60	
COc1ccc(N2C(=O)N(c3c(C)cccc3C)Cc3cnc(Nc4ccc(N5CCN(C)CC5)cc4)nc32)nc1 [YKL-04-136-06]	26.9	8.05	
COc1ccc(N2C(=O)N(c3c(C)cccc3C)Cc3cnc(Nc4cnn(C5CCOCC5)c4)nc32)c(OC)c1 [YKL-04-105]	9.9	8.30	
COc1cc(N2CCN(C(C)=O)CC2)ccc1N1C(=O)N(c2c(C)cccc2C)Cc2cnc(Nc3ccc(N4CCN(C)CC4)cc3)nc21 [YKL-04-136-05]	8.9	7.38	
Cc1cccc(C)c1NC(=O)N1C/C=C\COc2cccc(c2)Nc2cc1ncn2 [HG-10-32-01]	2.4		Highest fold Mitf induction (B16 cells): 2.4 fold
COc1ccc(N2C(=O)N(c3c(C)cccc3C)Cc3cnc(Nc4cc(C)c(OCCN5CCOCC5)c(C)c4)nc32)c(OC)c1 [YKL-04-107]	3.6	7.82	
COc1cc(N2CCN(C(C)=O)CC2)ccc1N1C(=O)N(c2c(C)cccc2C)Cc2cnc(Nc3ccc(CN4CCN(C)CC4)cc3)nc21 [YKL-04-136-11]	9.58		Highest fold Mitf induction (B16 cells): 9.58 fold
Cc1cccc(C)c1N1Cc2cnc3nc2N(C/C=C/COc2cc(ccc2N2CCN(C)CC2)N3)C1=O [YKL-05-204-2]			Results (skin darkening) [1, 2]: Darkens; Results (skin darkening) ([1]; Table 4): Darkens
Cc1cccc(C)c1N1Cc2cnc3nc2N(C/C=C/COCc2cccc(c2)N3)C1=O [YKL-05-200-2]			Results (skin darkening) [1, 2]: Darkens; Results (skin darkening) ([1]; Table 4): Darkens
COc1ccc(N2C(=O)N(c3c(C)cccc3C)Cc3cnc(Nc4cc(CN5CCOCC5)cc(C(F)(F)F)c4)nc32)c(OC)c1 [YKL-04-118]	1.1	2.85	
COc1ccc(N2C(=O)N(c3c(C)cccc3C)Cc3cnc(Nc4cnn(CCN(C)C)c4)nc32)c(OC)c1 [YKL-04-136-02]	16.1	7.68	
Cc1cccc(C)c1N1Cc2cnc(Nc3ccc(N4CCN(C)CC4)cc3)nc2N(C2CCC2)C1=O [YKL-06-060]			Results (skin darkening) [1, 2]: Darkens; Results (skin darkening) ([1]; Table 4): Darkens
COc1ccc(N2C(=O)N(c3c(C)cccc3C)Cc3cnc(Nc4ccc(N5CCN(C)CC5)c(OC)c4)nc32)c(OC)c1 [YKL-04-114]	10.4	7.17	
COc1ccc(N2C(=O)N(c3c(C)cccc3C)Cc3cnc(Nc4cc(CN5CCN(C)CC5)cc(C(F)(F)F)c4)nc32)c(OC)c1 [YKL-04-125]	9.7	6.88	
COc1ccc(N2C(=O)N(c3c(C)cccc3C)Cc3cnc(Nc4ccc(N5CCOCC5)c(OC)c4)nc32)c(OC)c1 [YKL-04-115]	10.1	7.62	
COc1ccc(N2C(=O)N(c3c(C)cccc3C)Cc3cnc(Nc4ccc(N5CCOCC5)c(C(F)(F)F)c4)nc32)c(OC)c1 [YKL-04-104]	8	7.68	
